From patent US20250171434A1, “SEC61 INHIBITORS AND USE THEREOF” (KEZAR LIFE SCIENCES, INC., priority 2022, published 2025)
Read-outs that look alike come from different tables or passages of the source.

How the values were obtained:
[1] = Liver Microsome Stability Assay, human; format: in vitro ADME; details: human liver microsomes 1.0 mg/mL, 1.0 uM compound, 37° C., 1 mM NADPH
Procedure: (§1) Stability of a compound was assessed in the presence of liver microsomes from various sources—mouse, rat, monkey and human liver microsomes. 1.0 uM compound, 0.4% DMSO in 0.1 M Potassium Phosphate with 1.0 mg/mL liver microsomes, were incubated at 37° C. with or without 1 mM NADPH. The samples were quenched at 0, and 30 minutes.

[2] = Liver Microsome Stability Assay, mouse; format: in vitro ADME; details: mouse liver microsomes 1.0 mg/mL, 1.0 uM compound, 37° C., 1 mM NADPH
Procedure: as §1

[3] = tested on: IL6R-ss+10aa/Gaussia Luciferase; test: Dox-induced IL-6R-ss-Gluc Assay; format: cell-based
Excerpt: Flp-In 293 T-REx™ cells were transfected with pcDNATM5/FRT/TO plasmid inserted with cDNA encoding Gaussia Luciferase fused to the 3′ end of cDNA encoding IL6R signal sequence plus 10 amino acids (N-[…]-C). Transfected cells were selected for resistance to the selectable markers Hygromycin and Blasticidin to create a stable cell line that contained the IL6R-ss+10aa/Gaussia Luciferase cDNA insert whose expression was regulated under the T-REx™ system. The day before assay, cells were trypsinized and plated in 384-well tissue culture plates. The next day, compound dilutions in DMSO/media containing doxycycline were added to the wells and incubated at 37° C., 5% CO2.
(§2) For chemical structures that include one or more stereoisomers, but are illustrated without indicating stereochemistry, the assay data refers to a mixture of stereoisomers.

[4] = tested on: IL-2-FL/Gaussia Luciferase; test: Dox Inducible IL2-FL-Gluc Assay; format: cell-based
Excerpt: Flp-In 293 T-REx™ cells were transfected with pcDNA™5/FRT/TO plasmid inserted with cDNA encoding Gaussia Luciferase fused to the 3′ end of cDNA encoding full length IL-2 (amino acids 1-153). Transfected cells were selected for resistance to the selectable markers Hygromycin and Blasticidin to create a stable cell line that contained the IL-2-FL/Gaussia Luciferase cDNA insert whose expression was regulated under the T-REx™ system. The day before assay, cells were trypsinized and plated in 384-well tissue culture plates. The next day, compound dilutions in DMSO/media containing doxycycline were added to the wells and incubated at 37° C., 5% CO2.
as §2

[5] = Liver Microsome Stability Assay, rat; format: in vitro ADME; details: rat liver microsomes 1.0 mg/mL, 1.0 uM compound, 37° C., 1 mM NADPH
Procedure: as §1

[6] = Liver Microsome Stability Assay, monkey; format: in vitro ADME; details: monkey liver microsomes 1.0 mg/mL, 1.0 uM compound, 37° C., 1 mM NADPH
Procedure: as §1

[7] = tested on: multiple myeloma cell line U266B1; test: U266 Cell Viability Assay; format: cell-based; details: Homo sapiens, U-266, 48 h, read-out: 48 hr U266 Viability Celltiter-Glo: Mean EC50 (nM)
Procedure: (§3) The human multiple myeloma cell line U266B1 was cultured in RPMI 1640 media supplemented with 10% fetal bovine serum, 2 mM Glutamine, and 1× Penicillin/Streptomycin. Cells were plated in 384-well tissue culture plates and treated with compound dilutions in DMSO/media. Plates were incubated at 37° C., 5% CO2 for 48 hours. After 48 hours, Celltiter-Glo® (Promega) was added to each well and luciferase signal was quantified using Tecan Infinite M1000 Pro for cell viability determination.
as §2

CD47(ss + 10)Gluc = test: Dox-Induced CD47-ss-Gluc Assay; format: cell-based
[8] = tested on: multiple myeloma cell line NCI-H929; test: H929 Cell Viability Assay; format: cell-based, human; details: for EC50: Homo sapiens, NCI-H929, 48 h, read-out: 48 hr H929 Viability Celltiter-Glo: Mean EC50 (nM)
Procedure: as §3, with “NCI-H929” for “U266B1”, “cultured in Advanced RPMI 1640 media (Gibco®) supplemented with 6% fetal bovine serum, 2 mM Glutamine, and 1× Penicillin/Streptomycin. On the day of assay, cells were resuspended” for “cultured”, “Penicillin/Streptomycin and” for “Penicillin/Streptomycin. Cells were”
as §2

[9] = tested on: PD1-ss+10aa/Gaussia Luciferase; test: Dox-Induced PD1-ss-Gluc Assay; format: cell-based
Excerpt: Flp-In 293 T-REx™ cells were transfected with pcDNA™5/FRT/TO plasmid inserted with cDNA encoding Gaussia Luciferase fused to the 3′ end of cDNA encoding PD1 signal sequence plus 10 amino acids (N-[…]-C) (SEQ ID NO: 1). Transfected cells were selected for resistance to the selectable markers Hygromycin and Blasticidin to create a stable cell line that contained the PD1-ss+10aa/Gaussia Luciferase cDNA insert whose expression was regulated under the T-REx™ system. The day before assay, cells were trypsinized and plated in 384-well tissue culture plates. The next day, compound dilutions in DMSO/media containing doxycycline were added to the wells and incubated at 37° C., 5% CO2.
as §2

[10] = ratio of IC50s IL6R/PD1; Table 1
[11] = read-out: 24hr Dox Inducible IL6R(ss + 10)Gluc 293FRT/TO: Mean IC50; Flp-In 293 T-REx cells, 24 hours with doxycycline; Table 1
[12] = ratio of IC50s IL2/PD1; Table 1
[13] = read-out: 24 hr Dox Inducible IL2FLGluc 293FRT/TO: Mean IC50; Flp-In 293 T-REx cells, 24 hours with doxycycline; Table 1
[14] = read-out: 24 hr Dox Inducible CD47(ss + 10)Gluc 293FRT/TO: Mean IC50; Flp-In 293 T-REx cells, 24 hours with doxycycline; Table 1
[15] = read-out: 24 hr Dox Inducible PD1ssGluc 293FRT/TO: Mean IC50; Flp-In 293 T-REx cells, 24 hours with doxycycline; Table 1

Row | SMILES | Liver Microsome Stability (Multiple Species): Human - % Remaining after 30 min w/ NADPH (%) [1] [%] | Liver Microsome Stability (Multiple Species): Mouse - % Remaining after 30 min w/ NADPH (%) [2] [%] | 24hr Dox Inducible IL6R(ss + 10)Gluc 293FRT/TO: IL6R/PD1 [3, 10] | IC50 [3, 11] [nM] | 24 hr Dox Inducible IL2FLGluc 293FRT/TO: IL2/PD1 [4, 12] | IC50 [4, 13] [nM] | Liver Microsome Stability (Multiple Species): Rat - % Remaining after 30 min w/ NADPH (%) [5] [%] | Liver Microsome Stability (Multiple Species): Monkey - % Remaining after 30 min w/ NADPH (%) [6] [%] | EC50 [7] [nM] | IC50 (CD47(ss + 10)Gluc; [14]) [nM] | EC50 [8] [nM] | IC50 [9, 15] [nM] | 48 hr H929 Viability Celltiter-Glo: Mean EC50 (nM) ([8]; NCI-H929 cells, 48 hours, Celltiter-Glo) | IC50 ([3]; Flp-In 293 T-REx cells, 24 hours with doxycycline; Table 1; read-out: 24hr Dox Inducible IL6R(ss + 10)Gluc 293FRT/TO: Mean IC50) [nM] | IC50 ([4]; Flp-In 293 T-REx cells, 24 hours with doxycycline; Table 1; read-out: 24 hr Dox Inducible IL2FLGluc 293FRT/TO: Mean IC50) [nM] | IC50 (CD47(ss + 10)Gluc; Flp-In 293 T-REx cells, 24 hours with doxycycline; Table 1; read-out: 24 hr Dox Inducible CD47(ss + 10)Gluc 293FRT/TO: Mean IC50) [nM] | IC50 ([9]; Flp-In 293 T-REx cells, 24 hours with doxycycline; Table 1; read-out: 24 hr Dox Inducible PD1ssGluc 293FRT/TO: Mean IC50) [nM]
1 | CC(C(F)F)n1cnc(/C=C/c2csc(NC(=O)c3cc(Cl)cn3Cc3ccnc(F)c3)n2)c1 (stereo not drawn) [Compound A4, (E)-4-chloro-N-(4-(2-(1-(1,1-difluoropropan-2-yl)-1H-imidazol-4-yl)vinyl)thiazol-2-yl)-1-((2-fluoropyridin-4-yl)methyl)-1H-pyrrole-2-carboxamide] | 3 | 80 | 11 | 6770 | 21 | 12700 | 73 | 4 | > 25000 | 6230 | > 23300 | 604 |  |  |  |  | 
2 | O=C(Nc1nc(/C=C/c2cn(C(F)F)cn2)cs1)c1cc(Cl)cn1Cc1ccnc(F)c1 [Compound A5, (E)-4-chloro-N-(4-(2-(1-(difluoromethyl)-1H-imidazol-4-yl)vinyl)thiazol-2-yl)-1-((2-fluoropyridin-4-yl)methyl)-1H-pyrrole-2-carboxamide] | 4 | 73 | >57 | > 25000 | >57 | > 25000 | 42 | 2 | 16800 | > 25000 | 10100 | 436 |  |  |  |  | 
3 | COc1cc(C(=O)Nc2nc(/C=C/c3ncn(C(C)C)c3Cl)c(Cl)s2)n(Cc2ccnc(F)c2)c1 [Compound A6, (E)-N-(5-chloro-4-(2-(5-chloro-1-isopropyl-1H-imidazol-4-yl)vinyl)thiazol-2-yl)-1-((2-fluoropyridin-4-yl)methyl)-4-methoxy-1H-pyrrole-2-carboxamide] | 48 | 96 | 28 | 2330 | 29 | 2420 | 76 | 30 | > 25000 | 2160 |  | 85 | I.A |  |  |  | 
4 | O=C(Nc1nc(/C=C/C2CCC(F)(F)CC2)cs1)c1cccn1Cc1ccnc(F)c1 [Compound B29, (E)-N-(4-(2-(4,4-difluorocyclohexyl)vinyl)thiazol-2-yl)-1-((2-fluoropyridin-4-yl)methyl)-1H-pyrrole-2-carboxamide] |  |  | 8 |  | 12.0 |  |  |  |  |  |  |  |  | 922 | 1430 | 838 | 112
